How the values were obtained:
[1] = test system: endothelium-intact aortic rings; test: Vascular reactivity of aortic rings from C57/BL6 mice (myograph, TABLE 28); design: species or system mouse
Procedure: (§1) Aortic rings from eight to ten-week old male C57/BL6 mice were used to investigate the effects of Compound 2 on endothelial function. Twelve to fourteen-week old male Ins2^Akita mice and non-diabetic littermate controls were used to study the effects of Compound 2 on diabetes-associated endothelial dysfunction. Myograph experiments were performed in modified Krebs-Henseleit solution. Aortae were dissected free of adhering tissue, cut into 2-mm segments, and mounted in 5-mL myograph chambers under a basal tension of 1 g. Relaxation to cumulatively increasing concentrations (0.001-100 μmol/L) of Compound 2 or solvent (DMSO) was assessed in endothelium-intact aortic segments pre-contracted with phenylephrine (1 μmol/L) in the absence or presence of N^ω-nitro-L-arginine methyl ester (L-NAME; 300 μmol/L).
To assess the role for VE-PTP in the regulation of vascular reactivity, endothelium-intact rings of murine aortae were incubated with increasing concentrations of Compound 2.
FIG. 24 panels A-D illustrate the effect of Compound 2 on endothelial function. FIG. 24 panel A illustrates concentration dependent effect of Compound 2 on the tone of endothelium-intact aortic rings. Experiments were performed in the absence and presence of an eNOS inhibitor, L-NAME (300 μmol/L). FIG. 24 panels B-D illustrate the effect of solvent (Sol, DMSO) and Compound 2 (1, 3, or 10 μmol/L) on the contractile response to phenylephrine (PE; FIG. 24 panel B), and relaxation induced by either sodium nitroprusside (SNP; FIG. 24 panel C) or acetylcholine (ACh; FIG. 24 panel D). The dotted line in FIG. 24 panel D represents responses in endothelium-denuded aortic rings; n=5 mice/group.

[2] = test system: endothelium-intact aortic rings from WT and Akita mice; test: Vascular reactivity of aortic rings from diabetic Ins2Akita mice and WT littermates (TABLE 29); design: species or system mouse; details: 10 μmol/L
Procedure: as §1
To determine whether VE-PTP inhibition affects endothelial dysfunction that accompanies diabetes, aortic rings were isolated from 12-week old diabetic Ins2^Akita(Akita) mice and their non-diabetic littermates.
FIG. 29 panels A-B illustrate the effects of Compound 2 on diabetes-induced endothelial dysfunction. FIG. 29 panel A illustrates the effects of Compound 2 on acetylcholine-induced relaxation of endothelium-intact aortic rings from WT and Akita mice.

human endothelial cells = test: NO assay (nitrite in supernatant) in human endothelial cells; assay type: cell-based; details: 0.3-30 μmol/L, 30 minutes
Procedure: Confluent human endothelial cell monolayers were cultured overnight in MCDB131 containing 0.1% BSA and sepiapterin (10 μmol/L). The monolayers were then incubated with increasing concentrations of Compound 2 (0.3-30 μmol/L) or solvent (DMSO) for 30 minutes. In separate experiments, cells treated with a control siRNA or siRNA directed against ABL1 were cultured in MCDB131 containing 0.1% BSA and sepiapterin (10 μmol/L), and then treated with Compound 2 (30 μmol/L) or solvent (DMSO) for 30 minutes before the addition of Yoda1 (1 μmol/L) for an additional 30 minutes. HEK293 cells co-transfected with wild-type eNOS and wild-type ABL1, DN ABL1, or GFP (as a control) were cultured overnight in minimal essential medium containing 0.5% heat-inactivated FCS and sepiapterin (10 μmol/L). Aliquots of the culture media were collected before and after each treatment. Potential cell debris was removed by centrifugation of the media at 1000 rpm for 5 minutes. NO release was assessed by determining the amount of nitrite in the cell supernatants using a Nitric Oxide Analyzer after reaction with iodide and acetic acid under nitrogen at room temperature.
To investigate the role of VE-PTP on the regulation of eNOS, human endothelial cells were treated with increasing concentrations of Compound 2 (for 30 minutes) and the generation of NO was assessed using a NO analyzer.

recombinant human VE-PTP = recombinant human VE-PTP (Homo sapiens, UniProt P23467); test: Human VE-PTP (HPTPβ) phosphatase assay on eNOS Tyr81; assay type: biochemical; details: pre-incubation with 10 μmol/L; cell-free
Procedure: Confluent monolayers of human endothelial cells expressing FLAG-tagged eNOS were cultured overnight in MCDB131 containing 0.1% BSA and then stimulated with Yoda1 (1 μmol/L) for 30 minutes to elicit phosphorylation of eNOS on Tyr81. eNOS-FLAG immunoprecipitates were used as substrates to test the ability of recombinant human VE-PTP to dephosphorylate eNOS Tyr81 in a cell-free in vitro reaction. Briefly after washing the FLAG-eNOS, immunoprecipitates were suspended in phosphatase assay buffer containing Tris/HCl pH 7.5 (50 mmol/L), NaCl (150 mmol/L), EDTA (1 mmol/L), and EDTA-free protease inhibitors mix at room temperature. An aliquot of the eNOS-FLAG immunoprecipitate was immediately processed for immunoblotting (input) and the remainder was divided into 6 identical aliquots and incubated for up to 10 minutes at room temperature in phosphatase assay buffer containing DTT (3 mmol/L) and recombinant human VE-PTP (100 U/50 μl reaction). Experiments were performed in the presence of solvent (1% DMSO) or Compound 2 (10 μmol/L) and reactions were stopped by boiling samples for 10 minutes in SDS sample buffer. eNOS phosphorylation was then analyzed by SDS-PAGE and immunoblotting.

[3] = arteries precontracted with phenylephrine, n=5 mice/group

Sequence of recombinant human VE-PTP (P23467 23-1997): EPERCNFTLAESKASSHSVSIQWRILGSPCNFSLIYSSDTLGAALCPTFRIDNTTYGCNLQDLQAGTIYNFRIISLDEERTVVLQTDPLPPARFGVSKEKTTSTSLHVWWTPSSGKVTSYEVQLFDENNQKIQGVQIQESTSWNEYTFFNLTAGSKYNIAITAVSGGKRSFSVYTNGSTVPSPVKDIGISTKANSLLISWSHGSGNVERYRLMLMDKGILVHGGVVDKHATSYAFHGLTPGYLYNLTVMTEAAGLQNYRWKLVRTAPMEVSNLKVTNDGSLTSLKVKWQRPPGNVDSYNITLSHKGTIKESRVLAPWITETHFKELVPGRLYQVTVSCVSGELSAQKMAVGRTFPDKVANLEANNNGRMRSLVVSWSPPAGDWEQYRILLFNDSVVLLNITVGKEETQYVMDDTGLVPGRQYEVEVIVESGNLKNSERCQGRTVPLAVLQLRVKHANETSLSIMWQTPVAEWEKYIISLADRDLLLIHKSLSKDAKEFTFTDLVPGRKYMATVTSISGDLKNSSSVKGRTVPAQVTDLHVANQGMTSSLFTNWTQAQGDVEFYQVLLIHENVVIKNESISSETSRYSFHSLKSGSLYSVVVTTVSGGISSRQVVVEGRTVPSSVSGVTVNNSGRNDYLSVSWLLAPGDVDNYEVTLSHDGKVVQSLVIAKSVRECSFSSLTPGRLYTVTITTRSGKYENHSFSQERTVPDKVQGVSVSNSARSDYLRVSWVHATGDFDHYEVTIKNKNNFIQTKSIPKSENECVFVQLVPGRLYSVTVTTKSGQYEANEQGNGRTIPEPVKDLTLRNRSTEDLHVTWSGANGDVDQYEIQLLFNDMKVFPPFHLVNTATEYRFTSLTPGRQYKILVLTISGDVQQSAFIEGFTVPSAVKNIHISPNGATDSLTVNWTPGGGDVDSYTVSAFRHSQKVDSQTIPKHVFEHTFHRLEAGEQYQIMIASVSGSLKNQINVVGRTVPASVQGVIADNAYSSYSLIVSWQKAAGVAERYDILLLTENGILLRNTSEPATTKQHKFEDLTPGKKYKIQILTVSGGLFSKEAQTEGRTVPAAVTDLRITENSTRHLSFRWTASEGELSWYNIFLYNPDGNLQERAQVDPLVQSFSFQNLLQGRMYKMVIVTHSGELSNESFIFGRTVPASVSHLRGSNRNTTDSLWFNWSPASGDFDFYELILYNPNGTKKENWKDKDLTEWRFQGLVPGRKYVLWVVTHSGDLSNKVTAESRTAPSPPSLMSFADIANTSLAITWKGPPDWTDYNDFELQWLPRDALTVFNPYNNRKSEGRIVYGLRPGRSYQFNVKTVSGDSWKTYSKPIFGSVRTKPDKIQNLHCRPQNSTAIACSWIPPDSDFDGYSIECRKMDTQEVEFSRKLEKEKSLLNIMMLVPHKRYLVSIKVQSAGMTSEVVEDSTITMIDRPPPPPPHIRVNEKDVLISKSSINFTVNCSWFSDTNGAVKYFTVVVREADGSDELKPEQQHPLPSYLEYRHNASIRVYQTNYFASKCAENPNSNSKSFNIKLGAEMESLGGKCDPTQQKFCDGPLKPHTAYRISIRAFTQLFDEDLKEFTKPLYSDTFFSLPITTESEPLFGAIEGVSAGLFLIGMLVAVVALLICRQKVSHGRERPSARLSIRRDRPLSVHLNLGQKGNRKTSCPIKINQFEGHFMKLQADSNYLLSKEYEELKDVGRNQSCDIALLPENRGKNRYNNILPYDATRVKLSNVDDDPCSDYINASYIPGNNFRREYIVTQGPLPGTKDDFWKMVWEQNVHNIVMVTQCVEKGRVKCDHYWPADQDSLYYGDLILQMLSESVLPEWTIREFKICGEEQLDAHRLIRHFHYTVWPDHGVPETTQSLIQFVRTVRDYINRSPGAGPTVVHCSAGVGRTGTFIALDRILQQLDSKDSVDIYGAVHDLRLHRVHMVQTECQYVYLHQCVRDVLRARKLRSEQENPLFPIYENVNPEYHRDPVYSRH

With `CCc1nc([C@H](Cc2ccc(NS(=O)(=O)O)cc2)NC(=O)[C@H](Cc2ccccc2)NC(=O)OC)cs1` [Compound 2] the “phenylephrine-induced contractions and sodium nitroprusside-induced relaxations” value ([1]; 1, 3, or 10 μmol/L, 30 minutes) was “Neither phenylephrine-induced contractions nor sodium nitroprusside-induced relaxations were affected”, the “acetylcholine-induced relaxations of endothelium-intact vessels” value ([1]; 1, 3, or 10 μmol/L, concentration-dependent) was “significantly enhanced” and the “relaxation response in presence of eNOS inhibitor L-NAME” value ([1]; L-NAME 300 μmol/L) was “abolished”. The “Emax of concentration-dependent relaxation” value [1, 3] was 73.4±2.9%, the “pEC50 of concentration-dependent relaxation” value [1, 3] was 5.14±0.05 log mol/L and the “acetylcholine-induced and NO-mediated relaxation in aortic rings from diabetic mice” value ([2]; Ins2Akita mice) was “restored”. The “elevated phenylephrine-induced contraction of aortic rings” value ([2]; Ins2Akita mice) was “not influenced”, the acetylcholine-induced endothelium-dependent relaxation ([2]; tissues from non-diabetic mice) was “potentiated responses” and the “basal NO production (nitrite in supernatant)” value (human endothelial cells) was “enhanced basal NO production”. For the same molecule, the “time-dependent dephosphorylation of eNOS Tyr81 by recombinant VE-PTP” value (recombinant human VE-PTP) was “abolished”.
